Measurements taken from patent US20100190747A1, “Fused ring compound and use thereof” (priority 2009, published 2010).

target: T1, delta-5-desaturase (Rattus norvegicus, UniProt Q920R3); assay: Inhibitory activity on delta-5-desaturase (rat liver microsomal fraction, 14C-eicosatrienoic acid, TLC); format: biochemical; details: test compound at 10 μM, room temperature, 120 minutes
T1 construct: the microsomal fraction of a rat river (10 μl), which had been diluted to 3 mg/ml; from tissue; host or cells: rat liver microsomal fraction
In short: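 Rat liver microsomes (3 mg/ml before addition) incubated with test compound at 10 μM, NADH, ATP, CoA and 14C-eicosatrienoic acid in phosphate buffer pH 7.4 with BSA and glutathione, 120 min at room temperature. Lipids saponified, extracted, separated by reverse-phase TLC and imaged; % inhibition reported.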

T1 sequence (Q920R3 whole entry): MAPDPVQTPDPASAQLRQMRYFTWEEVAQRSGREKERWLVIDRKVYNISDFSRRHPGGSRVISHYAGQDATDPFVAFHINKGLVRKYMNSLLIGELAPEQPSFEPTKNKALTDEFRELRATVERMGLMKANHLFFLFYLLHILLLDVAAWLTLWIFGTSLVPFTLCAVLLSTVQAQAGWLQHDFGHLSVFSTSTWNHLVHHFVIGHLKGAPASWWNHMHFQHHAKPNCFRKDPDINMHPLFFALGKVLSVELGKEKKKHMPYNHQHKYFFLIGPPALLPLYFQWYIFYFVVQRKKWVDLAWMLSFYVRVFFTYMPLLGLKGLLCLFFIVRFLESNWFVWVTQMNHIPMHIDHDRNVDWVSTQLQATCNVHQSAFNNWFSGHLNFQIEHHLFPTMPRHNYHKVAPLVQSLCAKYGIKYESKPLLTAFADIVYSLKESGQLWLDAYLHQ

SMILES | inhibition at 10 µM [%]
CC1(COc2ccc(-n3c(SCCCC(=O)NCCC#N)nc4cc[nH]c4c3=O)cc2)CC1 [Example 93, N-(2-cyanoethyl)-4-[(3-{4-[(1-methylcyclopropyl)methoxy]phenyl}-4-oxo-4,5-dihydro-3H-pyrrolo[3,2-d]pyrimidin-2-yl)sulfanyl]butanamide] | 101
O=C(CCCSc1nc2cc[nH]c2c(=O)n1-c1ccc(OCC(F)(F)F)cc1)N1CCC(O)C1 (centres unmarked) [Example 97] | 100
CC(C)(O)CCCSc1nc2cc[nH]c2c(=O)n1-c1ccc(OCC(F)(F)F)cc1 [Example 123, 2-[(4-Hydroxy-4-methylpentyl)sulfanyl]-3-[4-(2,2,2-trifluoroethoxy)phenyl]-3,5-dihydro-4H-pyrrolo[3,2-d]pyrimidin-4-one] | 101
CS(=O)(=O)CCCSc1nc2cc[nH]c2c(=O)n1-c1ccc(OCC2CC2)cc1 [Example 154, 3-[4-(Cyclopropylmethoxy)phenyl]-2-{[3-(methylsulfonyl)propyl]sulfanyl}-3,5-dihydro-4H-pyrrolo[3,2-d]pyrimidin-4-one] | 99
CCOCCSc1nc2cc[nH]c2c(=O)n1-c1ccc(OCC2CC2)cc1 [Example 143, 3-[4-(Cyclopropylmethoxy)phenyl]-2-[(2-ethoxyethyl)sulfanyl]-3,5-dihydro-4H-pyrrolo[3,2-d]pyrimidin-4-one] | 101
O=C(CCCSc1nc2cc[nH]c2c(=O)n1-c1ccc(OCC(F)(F)F)cc1)N1CCSCC1 [Example 136, 2-[(4-Oxo-4-thiomorpholin-4-ylbutyl)sulfanyl]-3-[4-(2,2,2-trifluoroethoxy)phenyl]-3,5-dihydro-4H-pyrrolo[3,2-d]pyrimidin-4-one] | 99
O=c1c2[nH]ccc2nc(SC(F)F)n1-c1ccc(OCC(F)(F)F)cc1 [Example 129, 2-[(Difluoromethyl)sulfanyl]-3-[4-(2,2,2-trifluoroethoxy)phenyl]-3,5-dihydro-4H-pyrrolo[3,2-d]pyrimidin-4-one] | 101
O=c1c2[nH]ccc2nc(SCCCS(=O)(=O)N2CCOCC2)n1-c1ccc(OCC(F)(F)F)cc1 [Example 106, 2-{[3-(Morpholin-4-ylsulfonyl)propyl]sulfanyl}-3-[4-(2,2,2-trifluoroethoxy)phenyl]-3,5-dihydro-4H-pyrrolo[3,2-d]pyrimidin-4-one] | 102
O=C(CCCSc1nc2cc[nH]c2c(=O)n1-c1ccc(OCC(F)(F)F)cc1)N1CCCC1 [Example 110, 2-[(4-Oxo-4-pyrrolidin-1-ylbutyl)sulfanyl]-3-[4-(2,2,2-trifluoroethoxy)phenyl]-3,5-dihydro-4H-pyrrolo[3,2-d]pyrimidin-4-one] | 102
CC(C)S(=O)(=O)CCCSc1nc2cc[nH]c2c(=O)n1-c1ccc(OCC2CC2)cc1 [Example 164, 3-[4-(Cyclopropylmethoxy)phenyl]-2-({3-[(1-methylethyl)sulfonyl]propyl}sulfanyl)-3,5-dihydro-4H-pyrrolo[3,2-d]pyrimidin-4-one] | 101
CS(=O)(=O)CCCSc1nc2cc[nH]c2c(=O)n1-c1ccc(OCC(F)(F)F)cc1 [Example 80, 2-{[3-(Methylsulfonyl)propyl]sulfanyl}-3-[4-(2,2,2-trifluoroethoxy)phenyl]-3,5-dihydro-4H-pyrrolo[3,2-d]pyrimidin-4-one] | 98
O=c1c2[nH]ccc2nc(SCCOC2CCOCC2)n1-c1ccc(OCC(F)(F)F)cc1 [Example 159, 2-{[2-(Tetrahydro-2H-pyran-4-yloxy)ethyl]sulfanyl}-3-[4-(2,2,2-trifluoroethoxy)phenyl]-3,5-dihydro-4H-pyrrolo[3,2-d]pyrimidin-4-one] | 99
O=C(CCCSc1nc2cc[nH]c2c(=O)n1-c1ccc(OCC(F)(F)F)cc1)N1CCOCC1 [Example 109, 2-[(4-Morpholin-4-yl-4-oxobutyl)sulfanyl]-3-[4-(2,2,2-trifluoroethoxy)phenyl]-3,5-dihydro-4H-pyrrolo[3,2-d]pyrimidin-4-one] | 101

More lines, now with the values ahead:

inhibition at 10 µM [%] | SMILES
99 | CCSc1nc2c(c(=O)n1-c1ccc(OCC(F)(F)C(F)(F)F)cc1)CC(=O)N2 [Example 269, 2-(Ethylsulfanyl)-3-[4-(2,2,3,3,3-pentafluoropropoxy)phenyl]-5,7-dihydro-3H-pyrrolo[2,3-d]pyrimidine-4,6-dione]
101 | O=C1Cc2c(nc(SCC(F)(F)F)n(-c3ccc(OCC(F)(F)F)cc3)c2=O)N1 [Example 298, 3-[4-(2,2,2-Trifluoroethoxy)phenyl]-2-[(2,2,2-trifluoroethyl)sulfanyl]-5,7-dihydro-3H-pyrrolo[2,3-d]pyrimidine-4,6-dione]
101 | N#CCCNC(=O)CCCSc1nc2c(C3CC3)c[nH]c2c(=O)n1-c1ccc(OCC(F)(F)F)cc1 [Example 170, N-(2-cyanoethyl)-4-({7-cyclopropyl-4-oxo-3-[4-(2,2,2-trifluoroethoxy)phenyl]-4,5-dihydro-3H-pyrrolo[3,2-d]pyrimidin-2-yl}sulfanyl)butanamide]
99 | O=C1Cc2c(nc(OCC(F)(F)F)n(-c3ccc(OCC(F)(F)C(F)(F)F)cc3)c2=O)N1 [Example 306, 3-[4-(2,2,3,3,3-Pentafluoropropoxy)phenyl]-2-(2,2,2-trifluoroethoxy)-5,7-dihydro-3H-pyrrolo[2,3-d]pyrimidine-4,6-dione]
98 | O=c1c2cc[nH]c2nc(SC(F)(F)F)n1-c1ccc(OCC(F)(F)F)cc1 [Example 253, 3-[4-(2,2,2-Trifluoroethoxy)phenyl]-2-[(trifluoromethyl)sulfanyl]-3,7-dihydro-4H-pyrrolo[2,3-d]pyrimidin-4-one]
101 | CCOCCOCCSc1nc2[nH]ccc2c(=O)n1-c1ccc(OCC(F)(F)F)cc1 [Example 192, 2-{[2-(2-Ethoxyethoxy)ethyl]sulfanyl}-3-[4-(2,2,2-trifluoroethoxy)phenyl]-3,7-dihydro-4H-pyrrolo[2,3-d]pyrimidin-4-one]
102 | O=c1c2cc[nH]c2nc(SCC(O)COC2CCOCC2)n1-c1ccc(OCC(F)(F)F)cc1 (centres unmarked) [Example 219, 2-{[2-Hydroxy-3-(tetrahydro-2H-pyran-4-yloxy)propyl]sulfanyl}-3-[4-(2,2,2-trifluoroethoxy)phenyl]-3,7-dihydro-4H-pyrrolo[2,3-d]pyrimidin-4-one]
97 | N#CCCNC(=O)CSc1nc2c(c(=O)n1-c1ccc(OCC(F)(F)F)cc1)CC(=O)N2 [Example 328, N-(2-cyanoethyl)-2-({4,6-dioxo-3-[4-(2,2,2-trifluoroethoxy)phenyl]-4,5,6,7-tetrahydro-3H-pyrrolo[2,3-d]pyrimidin-2-yl}sulfanyl)acetamide]
101 | O=C1Cc2c(nc(SCC3CCC3)n(-c3ccc(OCC(F)(F)F)cc3)c2=O)N1 [Example 296, 2-[(Cyclobutylmethyl)sulfanyl]-3-[4-(2,2,2-trifluoroethoxy)phenyl]-5,7-dihydro-3H-pyrrolo[2,3-d]pyrimidine-4,6-dione]

same assay, conditions: test compound at 10 μM, room temperature, 120 minutes, 10 µM

Inhibitory activity at 10 μM (%) | SMILES
101 | O=c1c2cc[nH]c2nc(OCC2CC2)n1-c1ccc(OCC(F)(F)F)cc1 [Example 289, 2-(Cyclopropylmethoxy)-3-[4-(2,2,2-trifluoroethoxy)phenyl]-3,7-dihydro-4H-pyrrolo[2,3-d]pyrimidin-4-one]
